Experimental data as given in publication PMC12333940, “A prometabolite strategy inhibits cardiometabolic disease in an ApoE^–/– murine model of atherosclerosis” (JCI Insight, 2025).
“And” between values parts separate entries of the source, which are not always exact repeats. Equal entries are not always repeated.

How the values were obtained:
[1] = LC-MS/MS of free butyrate in solution of fresh and aged SerBut
Experimental: To investigate stability, we repeated the experiment with SerBut in FBS-supplemented complete media stored for 1 month at 37°C (Figure 1B).
(B) LC-MS/MS analysis of free butyrate in solution of aged SerBut (incubated at 37°C in FBS-supplemented media for 1 month) and freshly dissolved SerBut and NaBut. (C) NF-κB activity of RAW Blue reporter cells upon treatment with the indicated concentrations of SerBut or NaBut for 24 hours followed by stimulation with 200 ng/mL LPS for 6 hours. (D–J) RAW 264.7 cells treated for 24 hours with the indicated concentrations of SerBut or NaBut followed by stimulation with 200 ng/mL LPS for 6 hours. (D–E) Mean fluorescence intensity (MFI) of iNOS^+ or CD80^+ RAW 264.7 cells analyzed by flow cytometry. (F–J) Cytokine concentrations in the cell culture supernatant of RAW 264.7 cells. “x” indicates untreated group. In A, n = 3 per group representing technical replicates. In B, n = 3 freshly prepared samples per 2 distinct experiments pooled for aged SerBut and NaBut groups, while fresh the SerBut group represents a single experiment. One sample in the aged SerBut group and 2 samples in the NaBut group were lost due to filtering malfunctions or LC-MS/MS autosampling malfunctions. In C, n = 6 technical replicates. Data represent mean ± SEM. […] In A, 2-way ANOVA was performed.
(§1) Samples were prepared and derivatized as described previously ([28]). Stock solutions were prepared in water/acetonitrile (ACN) (1:1 v/v): 3-nitrophenylhydrazine (NPH), and 1-ethyl-3-(3-dimethylaminopropyl)carbodiimide (EDC) (in 1% pyridine). The internal standard, 4-methylvaleric acid, was added. Samples were mixed with NPH and EDC stocks at a 1:1:1 volume ratio. The mixture was heated in a heating block at 60°C for 30 minutes. Samples were filtered through 0.22 μm filters and stored at 4°C before analysis.
Both derivatized butyrate-NPH and 4-methylvaleric-NPH were detected in negative mode. Column: Thermo Fisher Scientific C18 4.6 × 50 mm, 1.8 μm particle size, at room temperature. Mobile phase A: water with 0.1% v/v formic acid. Mobile phase B: ACN with 0.1% v/v formic acid. Injection volume: 5.0 μL. Flow rate: 0.5 mL/min. […] The MS conditions were optimized using pure butyrate-NPH or 4-methylvaleric-NPH at 1 mM. […] The ratio between MRM of butyrate and 4-methylvaleric acid was used to quantify butyrate concentration.

[2] = Biodistribution of free butyrate after oral gavage, ApoE–/– mice on HFD
Experimental: as §1
An Agilent 6460 Triple Quad MS-MS was used to detect the derivatized butyrate. Both derivatized butyrate-NPH and 4-methylvaleric-NPH were detected in negative mode. Column: Thermo Fisher Scientific C18 4.6 × 50 mm, 1.8 μm particle size, at room temperature. Mobile phase A: water with 0.1% v/v formic acid. Mobile phase B: ACN with 0.1% v/v formic acid. Injection volume: 5.0 μL. Flow rate: 0.5 mL/min. Gradient of solvent: 15% mobile phase B at 0.0 minutes; 100% mobile phase B at 3.5 minutes; 100% mobile phase B at 6.0 minutes; 15% mobile phase B at 6.5 minutes. The MS conditions were optimized using pure butyrate-NPH or 4-methylvaleric-NPH at 1 mM. The fragment voltage was set to 135 V, and the collision energy was 18 V. Multiple reaction monitoring (MRM) of 222 → 137 was assigned to butyrate, and MRM of 250 → 137 was assigned to 4-methylvaleric acid as the internal standard. The ratio between MRM of butyrate and 4-methylvaleric acid was used to quantify butyrate concentration.
Three hours after administration, mice were anesthetized under isoflurane, and blood was collected via submandibular vein into EDTA-coated tubes. The tubes were centrifuged, and plasma was collected and frozen at –80°C. […] Organs, including liver, MLNs, ILNs, spleen, lung, heart, aorta, small intestine, and large intestine were collected and then transferred to –80°C until further processing. To extract butyrate from plasma or organs, a 1:1 (v/v) ACN/water solution was used. Plasma was mixed 1:1 with the ACN/water solution and centrifuged to remove denatured proteins. Organs were weighed, transferred to Lysing Matrix D tubes (MP Biomedicals), and combined with the 1:1 v/v ACN/water solution. Samples were then lysed using a FastPrep-24 5G homogenizer (MP Biomedicals) and centrifuged. The supernatants were collected for butyrate measurement by LC-MS/MS. The final butyrate content in each organ was normalized by organ weight.

[3] = test system: ApoE^–/– mice on an HFD; test: Immunofluorescent staining of the aortic root (CD68, iNOS, DAPI); format: in vivo, mouse; set-up: Immunoflourescence Quantification #Cells/Area / Immunoflourescence Quantification #iNOS+/Area: unit not given beside the values; conditions: for Immunoflourescence Quantification #CD68 / Immunoflourescence Quantification #Cells / Immunoflourescence Quantification #Cells/Area / Immunoflourescence Quantification #iNOS+ / Immunoflourescence Quantification #iNOS+/Area / Immunoflourescence Quantification CD68+/Area / Immunoflourescence Quantification CD68+iNOS+ / Immunoflourescence Quantification CD68+iNOS+/Area: aortic root, individual samples
Description: SerBut water was pH adjusted using 10 M NaOH to a final pH of 7.4. […] After 6 weeks, mice were euthanized. […] The liver was harvested and part was homogenized in tissue protein extraction reagent buffer (Invitrogen, 78510) supplemented with protease inhibitor mini tablets (Thermo Fisher Scientific, PIA32955) for Western blotting and qPCR. […] Aortic root sections were brought to room temperature and rehydrated with PBS and permeabilized with 10% dimethyl sulfoxide (DMSO). […] Sections were washed again in PBS with 0.1% Tween 20 and then PBS and mounted with ProLong Gold Antifade Mountant with DAPI (Invitrogen). Slides were imaged with a DMI8 inverted fluorescence microscope (Leica Microsystems) and analyzed with QuPath (v0.5.0).

[4] = test system: ApoE^–/– mice on an HFD; test: Inflammatory cytokines in plasma (LEGENDPlex); format: in vivo, mouse; set-up: Plasma LegendPlex IFNy / Plasma LegendPlex IL-1B / Plasma LegendPlex IL-6: unit not given here; conditions: for plasma IL-1β / IL-6 and IFN-γ in plasma: 6 weeks; for IL-6 and IFN-γ in plasma: compared with control groups; for Plasma LegendPlex IFNy / Plasma LegendPlex IL-1B / Plasma LegendPlex IL-6: individual mice
Experimental: SerBut water was pH adjusted using 10 M NaOH to a final pH of 7.4. […] After 6 weeks, mice were euthanized. […] The liver was harvested and part was homogenized in tissue protein extraction reagent buffer (Invitrogen, 78510) supplemented with protease inhibitor mini tablets (Thermo Fisher Scientific, PIA32955) for Western blotting and qPCR. […] Blood chemical analysis was performed on an Alfa […] Chemistry Analyzer. Reagent kits from Alfa Wasserman were used according to manufacturer's instructions to analyze plasma: lipase (catalog SA1045), HDL-C (catalog SA2038, LDL-C (catalog SA1040), AST (catalog SA1053), ALT (catalog SA1052). A LEGENDPlex was utilized to analyze the concentrations of inflammatory cytokines (BioLegend).

Row | SMILES | Butyrate Release by LCMS-MS (free butyrate) ([1]; freshly dissolved) | Immunoflourescence Quantification #CD68 [3] | Immunoflourescence Quantification #Cells [3] | Immunoflourescence Quantification #Cells/Area [3] | Immunoflourescence Quantification #iNOS+ [3] | Immunoflourescence Quantification #iNOS+/Area [3] | Immunoflourescence Quantification CD68+/Area [3] | Immunoflourescence Quantification CD68+iNOS+ [3] | Immunoflourescence Quantification CD68+iNOS+/Area [3] | plasma IL-1β [4] | IL-6 and IFN-γ in plasma [4] | Plasma LegendPlex IFNy [4] | Plasma LegendPlex IL-1B [4] | Plasma LegendPlex IL-6 [4] | other results
1 | CCCC(=O)[O-].[Na+] [NaBut, sodium butyrate, reference compound] | 2.185 and 1.975 and 1.35 and 1.426 | 1074 and 944 and 743 and 1249 and 728 and 1069 and 1053 and 1330 and 954 and 511 | 1302 and 1139 and 1013 and 1531 and 949 and 1262 and 1685 and 1684 and 1364 and 682 | 0.004391 and 0.005279 and 0.00411 and 0.005114 and 0.004088 and 0.003979 and 0.00428 and 0.00408 and 0.005037 and 0.004831 | 500 and 473 and 401 and 466 and 354 and 445 and 695 and 625 and 264 | 0.001686 and 0.002192 and 0.001627 and 0.001557 and 0.001525 and 0.001403 and 0.001765 and 0.001514 and 0.00187 | 0.003622 and 0.004376 and 0.003015 and 0.004172 and 0.003136 and 0.00337 and 0.002675 and 0.003222 and 0.003523 and 0.003619 | 445 and 379 and 322 and 434 and 281 and 393 and 535 and 517 and 202 | 0.001501 and 0.001757 and 0.001307 and 0.00145 and 0.001211 and 0.001239 and 0.001359 and 0.001252 and 0.001431 | trend toward reduction | did not | 43.19 and 71.91 and 156.97 and 1.54 and 133.26 and 33.33 and 25.52 and 29.92 and 11.45 | 1.73 and 1.26 and 132.12 and 0.34 and 3.85 and 0.46 and 0.64 | 1.6 and 2.29 and 7.3 and 0.92 and 0.99 and 1.54 | free butyrate, Plasma ([2]; 3 hours after single gavage of 272 mM butyrate): 4.575 µM; CD68^+ cells and iNOS^+ cells per unit area atherosclerotic lesion ([3]; 6 weeks, compared with water- and SerBut-treated groups): increased
2 | CCCC(=O)OC[C@H](N)C(=O)O [SerBut, O-butyryl-L-serine] | 0.483 and 0.4832 and 0.4596 | 253 and 777 and 160 and 609 and 328 and 484 and 543 and 320 and 469 and 759 and 789 and 546 and 570 and 595 and 155 and 500 | 361 and 838 and 219 and 933 and 390 and 980 and 918 and 425 and 532 and 1028 and 894 and 662 and 629 and 763 and 225 and 709 | 0.003013 and 0.004253 and 0.004189 and 0.003573 and 0.00395 and 0.004233 and 0.003714 and 0.004358 and 0.004407 and 0.003725 and 0.004412 and 0.003975 and 0.003527 and 0.00449 and 0.003521 and 0.004264 | 313 and 90 and 377 and 151 and 158 and 199 and 404 and 180 and 226 and 262 and 184 and 96 and 292 | 0.001588 and 0.001722 and 0.001444 and 0.001529 and 0.00162 and 0.001649 and 0.001464 and 0.0008883 and 0.001357 and 0.001469 and 0.001083 and 0.001502 and 0.001756 | 0.002112 and 0.003943 and 0.003061 and 0.002332 and 0.003322 and 0.00209 and 0.002197 and 0.003281 and 0.003885 and 0.00275 and 0.003894 and 0.003278 and 0.003196 and 0.003502 and 0.002425 and 0.003007 | 308 and 87 and 302 and 146 and 132 and 181 and 347 and 153 and 200 and 252 and 157 and 71 and 253 | 0.001563 and 0.001664 and 0.001157 and 0.001479 and 0.001354 and 0.001499 and 0.001257 and 0.0007551 and 0.001201 and 0.001413 and 0.000924 and 0.001111 and 0.001521 | trend toward reduction | reduced | 1.54 and 21.65 and 44.82 and 28.44 and 36.42 | 1.73 and 1.26 and 21.47 and 0.83 and 1.61 and 1.04 and 1.97 and 2.89 and 4.7 | 1.18 and 0.95 and 0.92 and 0.99 and 2.99 | relative concentration of free butyrate on storage ([1]; FBS-supplemented complete media, 1 month at 37°C): did not change; Butyrate Release by LCMS-MS (free butyrate) ([1]; aged: 37°C in FBS-supplemented media for 1 month, listed as Aged SerBut): 0.457 and 0.4771 and 0.4543 and 0.3155 and 0.3079; share of sample that was free butyrate ([1]; at the time of measurement): approximately 10%; free butyrate in liver, ILNs, kidney, spleen, lung and plasma ([2]; 3 hours after gavage): significant increases; free butyrate in the MLNs ([2]; 3 hours after gavage): trending increases; free butyrate in the heart and aorta ([2]; 3 hours after gavage, compared with both NaBut-treated and PBS-treated mice): significantly increased free butyrate; total numbers of CD68^+ macrophages in plaque ([3]; 6 weeks, compared to NaBut-treated groups): reduced
